Laboratory results: PMC4870679, “A novel pathway for fungal D-glucuronate catabolism contains an L-idonate forming 2-keto-L-gulonate reductase” (Scientific Reports, 2016)

Columns and labels:
[1] = tested on: GluC (2-keto-L-gulonate reductase); assay: NADH consumption at […] nm, Konelab analyser; assay type: biochemical, Aspergillus niger; details: 400 uM NADH, 50 mM Tris pH 7
[2] = tested on: GluC (2-keto-L-gulonate reductase); assay: NADH formation at […] nm, Konelab analyser; assay type: biochemical, Aspergillus niger; details: 400 uM NAD+, 50 mM Tris pH 8; reverse direction

| Km [1] | SMILES | Km [2] |
| --- | --- | --- |
| 30 mM | O=C(O)C(=O)[C@@H](O)[C@H](O)[C@@H](O)CO [2-keto-L-gulonate] |  |
|  | O=C(O)[C@H](O)[C@@H](O)[C@H](O)[C@@H](O)CO [L-idonate] | 20 mM |
